Results as given in publication PMC3810412 (Bioorganic & medicinal chemistry letters, 2013).
Read-outs that look alike come from different tables or passages of the source.

Assays:
[1] = target: T1, GPI, Substance P induced muscle contraction (Cavia porcellus, UniProt P30547); experiment: GPI assay, Substance P antagonist; format: cell-based; settings: in the presence of 1 μM naloxone, n = 4
[2] = target: T1, GPI, Substance P induced muscle contraction; settings: 1 μM naloxone; ref 3a; cited from earlier work
rodent model = settings: ref 2a, cited from earlier work
human NK1 receptors = human NK1 receptors (Homo sapiens, UniProt P25103); settings: ratio; ref 3a; cited from earlier work
Chain of human NK1 receptors (P25103 whole entry): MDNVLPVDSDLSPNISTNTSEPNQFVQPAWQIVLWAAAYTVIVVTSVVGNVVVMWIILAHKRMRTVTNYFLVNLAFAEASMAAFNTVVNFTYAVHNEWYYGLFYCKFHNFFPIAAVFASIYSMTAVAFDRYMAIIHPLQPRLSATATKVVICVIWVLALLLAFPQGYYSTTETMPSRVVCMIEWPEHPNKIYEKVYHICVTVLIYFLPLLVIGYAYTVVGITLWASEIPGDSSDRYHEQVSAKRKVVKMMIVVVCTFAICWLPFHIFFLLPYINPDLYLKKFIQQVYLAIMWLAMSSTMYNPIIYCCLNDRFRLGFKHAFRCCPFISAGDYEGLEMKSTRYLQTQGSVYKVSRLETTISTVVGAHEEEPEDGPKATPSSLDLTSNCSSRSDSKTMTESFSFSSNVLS

rat NK1 receptors = rat NK1 receptors (Rattus norvegicus, UniProt P14600); settings: read-out: rNK1 Ki; [3H]Substance P; ref 3a; cited from earlier work
Chain of rat NK1 receptors (P14600 whole entry): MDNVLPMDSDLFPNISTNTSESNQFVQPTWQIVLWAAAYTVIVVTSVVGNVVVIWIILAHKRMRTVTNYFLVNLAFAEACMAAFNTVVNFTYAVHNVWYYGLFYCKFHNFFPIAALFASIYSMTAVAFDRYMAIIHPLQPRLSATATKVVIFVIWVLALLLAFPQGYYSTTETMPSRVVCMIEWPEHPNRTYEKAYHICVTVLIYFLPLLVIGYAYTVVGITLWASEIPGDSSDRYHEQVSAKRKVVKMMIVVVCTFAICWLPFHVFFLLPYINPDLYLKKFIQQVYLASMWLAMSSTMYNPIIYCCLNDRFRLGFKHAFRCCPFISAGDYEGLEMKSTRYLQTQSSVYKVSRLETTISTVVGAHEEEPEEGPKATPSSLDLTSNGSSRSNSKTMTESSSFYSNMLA

GPI (μ) = GPI (μ) (Cavia porcellus, UniProt P97266); settings: read-out: GPI (μ) opioid agonist IC50; ref 3a; cited from earlier work
MVD (δ) = MVD (δ) (Mus musculus, UniProt P32300); settings: read-out: MVD (δ) opioid agonist IC50; ref 3a; cited from earlier work
Chain of MVD (δ) (P32300 whole entry): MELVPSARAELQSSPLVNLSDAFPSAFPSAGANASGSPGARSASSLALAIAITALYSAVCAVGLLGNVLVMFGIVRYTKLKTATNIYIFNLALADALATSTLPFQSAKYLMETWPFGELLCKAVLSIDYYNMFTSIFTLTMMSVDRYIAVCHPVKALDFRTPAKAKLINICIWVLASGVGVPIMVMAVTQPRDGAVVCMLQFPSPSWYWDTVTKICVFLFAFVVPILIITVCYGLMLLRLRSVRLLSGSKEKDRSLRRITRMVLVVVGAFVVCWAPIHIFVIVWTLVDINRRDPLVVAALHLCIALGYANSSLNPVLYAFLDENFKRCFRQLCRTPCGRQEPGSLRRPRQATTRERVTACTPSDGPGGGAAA

T1 sequence (P30547 whole entry): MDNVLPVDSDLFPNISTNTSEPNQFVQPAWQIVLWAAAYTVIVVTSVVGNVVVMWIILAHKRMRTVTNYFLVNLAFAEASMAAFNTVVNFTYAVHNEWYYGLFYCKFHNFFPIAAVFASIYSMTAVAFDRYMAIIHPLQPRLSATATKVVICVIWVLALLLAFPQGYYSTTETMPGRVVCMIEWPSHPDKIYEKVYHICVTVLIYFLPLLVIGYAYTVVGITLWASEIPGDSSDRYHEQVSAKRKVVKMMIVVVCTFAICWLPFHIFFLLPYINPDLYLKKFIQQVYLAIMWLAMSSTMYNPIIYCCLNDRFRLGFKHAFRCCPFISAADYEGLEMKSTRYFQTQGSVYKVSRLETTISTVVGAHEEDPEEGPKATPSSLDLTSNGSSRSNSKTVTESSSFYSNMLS

Row | Compound | GPI Substance P antagonist Ke [1] [nM] | GPI Substance P antagonist Ke [2] [nM] | opioid-induced tolerance (rodent model) | reward liability (rodent model) | effect on neuropathic pain (rodent model; rodent model) | Ki(hNK1)/Ki(rNK1) (human NK1 receptors) | Ki (rat NK1 receptors) [µM] | IC50 (GPI (μ)) [µM] | IC50 (MVD (δ)) [µM]
1 | CC(=O)N[C@@H](Cc1c[nH]c2ccccc12)C(=O)OCc1cc(C(F)(F)F)cc(C(F)(F)F)c1 [L-732,138] | 250 |  |  |  |  |  |  |  | 
2 | Tyr^1-DAla^2-Gly^3-Phe^4-Met^5-Pro^6-Leu^7-Trp^8-O-[3′,5′-Bzl(CF3)2] [compound 1] |  | 25 | no sign of opioid-induce tolerance | no development of reward liability | reverse neuropathic pain | 3.5 | 0.00029 | 0.36 | 0.022
